# Assay results: patent US5438052A, “Cephalosporin derivatives” (Hoffmann-La Roche Inc., priority 1991, dated 1995)
# Where two headings read alike, the source gives them in different places.
# Assays:
# [1] = tested on: C. freundii 902; assay: Minimum inhibitory concentration in vitro, agar dilution method; type: cell-based; conditions: Citrobacter freundii
# Description: (§1) 1. Minimum Inhibitory Concentration in vitro
# (§2) The activities ascertained, minimum inhibitory concentration (MIC) in μg/ml, are compiled in Table 1 hereinafter: […]
# [2] = tested on: E. cloacae 908R; assay: as above; type: cell-based; conditions: Enterobacter cloacae
# Description: as §1, §2
# [3] = tested on: E. cloacae 908SSi; assay: as above; type: cell-based; conditions: Enterobacter cloacae
# Description: as §1, §2
# [4] = tested on: E. cloacae P99; assay: as above; type: cell-based; conditions: Enterobacter cloacae
# Description: as §1, §2
# [5] = tested on: E. coli 25922; assay: as above; type: cell-based; conditions: Escherichia coli
# Description: as §1, §2
# [6] = tested on: K. oxytoca 1082; assay: as above; type: cell-based; conditions: Klebsiella oxytoca
# Description: as §1, §2
# [7] = tested on: K. pneumoniae 418; assay: as above; type: cell-based; conditions: Klebsiella pneumoniae
# Description: as §1, §2
# [8] = tested on: P. aeruginosa 27853; assay: as above; type: cell-based; conditions: Pseudomonas aeruginosa
# Description: as §1, §2
# [9] = tested on: P. aeruginosa 799/61; assay: as above; type: cell-based; conditions: Pseudomonas aeruginosa
# Description: as §1, §2
# [10] = tested on: P. aeruginosa 799/WT; assay: as above; type: cell-based; conditions: Pseudomonas aeruginosa
# Description: as §1, §2
# [11] = tested on: P. aeruginosa BA; assay: as above; type: cell-based; conditions: Pseudomonas aeruginosa
# Description: as §1, §2
# [12] = tested on: P. aeruginosa MK1184; assay: as above; type: cell-based; conditions: Pseudomonas aeruginosa
# Description: as §1, §2
# [13] = tested on: S. aureus 6538; assay: as above; type: cell-based; conditions: Staphylococcus aureus
# Description: as §1, §2
# [14] = tested on: S. marcescens 69438; assay: as above; type: cell-based; conditions: Serratia marcescens
# Description: as §1, §2
# [15] = tested on: S. pneumoniae BA; assay: as above; type: cell-based; conditions: Streptococcus pneumoniae; S. pneumoniae BA, agar dilution; read-out: MIC
# Description: as §1, §2
# [16] = tested on: S. pyogenes 15; assay: as above; type: cell-based; conditions: Streptococcus pyogenes
# Description: as §1, §2
# [17] = tested on: E. coli 25922; assay: Experimental systemic septicaemia in the mouse; type: in vivo; conditions: 96 h
# Protocol: (§3) 2. Experimental systemic septicaemia in the mouse
# (§4) An experimental systemic septicaemia was produced in albino mice weighing 16-20 g by intraperitoneally injecting into the experimental animals a sample of a dilute culture of the test organism which had been grown overnight. The sample administered is calculated such that the dosage administered is about 5-100 times greater than the dosage which is required to kill 50% of untreated experimental animals within 48 hours. The bacteria were injected as a suspension in the culture broth. Groups of 5 experimental animals each were used not only for the control, but also for the treatment for each dosage tested. The products in accordance with the invention were administered subcutaneously as a suspension in Tween 80 (2%), whereby the concentrations were chosen such that each experimental animal received 500 μl per administration. The respective concentrations were administered twice, namely 1 and 3 hours after the infection (in the case of P. aeruginosa three times, namely 1, 3 and 5 hours after the infection). The ED50 is that dosage which protects 50% of the experimental animals and was calculated by means of the Probit method on the basis of the survial rate after 4 days following the infection. The ED50 values in mg/kg s.c. (subcutaneous) for representatives of the class of substance in accordance with the invention are given in Table 2 hereinafter.
# [18] = tested on: Pseudomonas aeruginosa BA; assay: Experimental systemic septicaemia in the mouse; type: in vivo; conditions: sc, 96 h
# Protocol: as §3, §4
# [19] = tested on: P. mirabilis 2117; assay: Minimum inhibitory concentration in vitro, agar dilution method; type: cell-based; conditions: Proteus mirabilis
# Description: as §1, §2
# [20] = tested on: P. vulgaris 1028; assay: as above; type: cell-based; conditions: Proteus vulgaris
# Description: as §1, §2
# [21] = C. freundii 902, agar dilution, read-out: MIC
# [22] = E. cloacae 908R, agar dilution, read-out: MIC
# [23] = E. cloacae 908SSi, agar dilution, read-out: MIC
# [24] = E. coli 25922, agar dilution, read-out: MIC
# [25] = K. oxytoca 1082, agar dilution, read-out: MIC
# [26] = K. pneumoniae 418, agar dilution, read-out: MIC
# [27] = P. aeruginosa 27853, agar dilution, read-out: MIC
# [28] = P. aeruginosa 799/61, agar dilution, read-out: MIC
# [29] = P. aeruginosa 799/WT, agar dilution, read-out: MIC
# [30] = P. aeruginosa BA, agar dilution, read-out: MIC
# [31] = P. aeruginosa MK1184, agar dilution, read-out: MIC
# [32] = S. aureus 6538, agar dilution, read-out: MIC
# [33] = S. marcescens 69438, agar dilution, read-out: MIC
# [34] = S. pyogenes 15, agar dilution, read-out: MIC
# [35] = P. aeruginosa BA, albino mice, s.c. 1, 3 and 5 hours after infection, survival after 4 days, read-out: ED50
# [36] = P. mirabilis 2117, agar dilution, read-out: MIC
# [37] = P. vulgaris 1028, agar dilution, read-out: MIC
structure (smiles),measurement,setting,value
"CC(C)(O/N=C(\C(=O)N[C@@H]1C(=O)N2C(C(=O)O)=C(CSc3nnc(-c4ccc(O)c(O)c4)o3)CS[C@H]12)c1csc(N)n1)C(=O)NNC(=O)c1ccc(O)c(O)c1 [Example 45, (6R,7R)-7-[(Z)-2-(2-amino-4-thiazolyl)-2-[[1-[3-(3,4-dihydroxybenzoyl)carbazoyl]-1-methylethoxy]imino]acetamido]-3-[[[5-(3,4-dihydroxyphenyl)-1,3,4-oxadiazol-2-yl]thio]methyl]-8-oxo-5-thia-1-azabicyclo[4.2.0]oct-2-ene-2-carboxylic acid]",MIC,[1]; [21],0.06 µg/mL
same,MIC,[2]; [22],> 32 µg/mL
same,MIC,[3]; [23],2 µg/mL
same,MIC,[4],> 32 µg/mL
same,MIC,[5]; [24],0.06 µg/mL
same,MIC,[6]; [25],0.06 µg/mL
same,MIC,[7]; [26],0.06 µg/mL
same,MIC,[8]; [27],0.12 µg/mL
same,MIC,[9]; [28],0.64 µg/mL
same,MIC,[10]; [29],0.06 µg/mL
same,MIC,[11]; [30],0.06 µg/mL
same,MIC,[12]; [31],1 µg/mL
same,MIC,[13]; [32],16 µg/mL
same,MIC,[14]; [33],0.06 µg/mL
same,MIC,[15],0.25 µg/mL
same,MIC,[16]; [34],1 µg/mL
same,ED50,"[17]; Escherichia coli, sc, E. coli 25922, albino mice, s.c. 1 and 3 hours after infection, survival after 4 days, read-out: ED50",0.13 mg/kg
same,ED50,[18]; [35],2.1 mg/kg
"Nc1nc(/C(=N/OCc2nc(=O)c(O)c[nH]2)C(=O)N[C@@H]2C(=O)N3C(C(=O)O)=C(CSc4cc(-c5ccc(O)c(O)c5)nc5ccnn45)CS[C@H]23)cs1 [Example 13, (6R,7R)-7-[(Z)-2-(2-amino-4-thiazolyl)-2-[[(1,4-dihydro-5-hydroxy-4-oxo-2-pyrimidinyl)methoxy]imino]acetamido]-3-[[[5-(3,4-dihydroxyphenyl)pyrazolo[1,5-a]pyrimidin-7-yl]thio]methyl]-8-oxo-5-thia-1-azabicyclo[4.2.0]oct-2-ene-2-carboxylic acid]",MIC,[1]; [21],0.25 µg/mL
same,MIC,[2]; [22],1 µg/mL
same,MIC,[3]; [23],4 µg/mL
same,MIC,[4],8 µg/mL
same,MIC,[5]; [24],0.06 µg/mL
same,MIC,[6]; [25],0.06 µg/mL
same,MIC,[7]; [26],0.06 µg/mL
same,MIC,[8]; [27],4 µg/mL
same,MIC,[9]; [28],0.06 µg/mL
same,MIC,[10]; [29],1 µg/mL
same,MIC,[11]; [30],2 µg/mL
same,MIC,[12]; [31],8 µg/mL
same,MIC,[19]; [36],0.06 µg/mL
same,MIC,[20]; [37],0.06 µg/mL
same,MIC,[13]; [32],16 µg/mL
same,MIC,[14]; [33],0.12 µg/mL
same,MIC,[16]; [34],1 µg/mL
same,ED50,[18]; [35],4 mg/kg
"Nc1nc(/C(=N/OCc2ccc(O)c(O)c2)C(=O)N[C@@H]2C(=O)N3C(C(=O)O)=C(CS(=O)(=O)c4ccc(O)c(O)c4)CS[C@H]23)cs1 [Example 23, (6R,7R)-7-[(Z)-2-(2-amino-4-thiazolyl)-2-[[(3,4-dihydroxybenzyl)oxy]imino]acetamido]-3-[[(3,4-dihydroxyphenyl)sulphonyl]methyl]-8-oxo-5-thia-1-azabicyclo[4.2.0]oct-2-ene-2-carboxylic acid]",MIC,[1]; [21],4 µg/mL
same,MIC,[2]; [22],> 32 µg/mL
same,MIC,[3]; [23],16 µg/mL
same,MIC,[4],> 32 µg/mL
same,MIC,[5]; [24],0.25 µg/mL
same,MIC,[6]; [25],16 µg/mL
same,MIC,[7]; [26],0.12 µg/mL
same,MIC,[8]; [27],32 µg/mL
same,MIC,[9]; [28],0.12 µg/mL
same,MIC,[10]; [29],1 µg/mL
same,MIC,[11]; [30],32 µg/mL
same,MIC,[12]; [31],> 32 µg/mL
same,MIC,[19]; [36],1 µg/mL
same,MIC,[20]; [37],2 µg/mL
same,MIC,[13]; [32],16 µg/mL
same,MIC,[14]; [33],2 µg/mL
same,MIC,[15],4 µg/mL
same,MIC,[16]; [34],4 µg/mL
"Cc1cc(SCC2=C(C(=O)[O-])N3C(=O)[C@@H](NC(=O)/C(=N\OCS(=O)(=O)c4ccc(O)c(O)c4)c4csc(N)n4)[C@H]3SC2)n2nc(CS(=O)(=O)c3ccc(O)c(O)c3)nc2n1.[Na+] [Example 10, (6R,7R)-7-[(Z)-2-(2-amino-4-thiazolyl)-2-[[[(3,4-dihydroxyphenyl)sulphonyl]methoxy]imino]acetamido]-3-[[[2-[[(3,4-dihydroxyphenyl)sulphonyl]methyl]-5-methyl-s-triazolo[1,5-a]pyrimidin-7-yl]thio]methyl]-8-oxo-5-thia-1-azabicyclo[4.2.0]oct-2-ene-2-carboxylic acid sodium salt (1:1)]",MIC,[1]; 902,0.12 µg/mL
same,MIC,[2]; 908R,2 µg/mL
same,MIC,[3]; 908SSI,8 µg/mL
same,MIC,[4],16 µg/mL
same,MIC,[5]; 25922,< 0.1 µg/mL
same,MIC,[6]; 1082,4 µg/mL
same,MIC,[7]; 418,< 0.1 µg/mL
same,MIC,[8]; 27853,< 0.1 µg/mL
same,MIC,[9]; 799/61,< 0.1 µg/mL
same,MIC,[10]; 799/WT,< 0.1 µg/mL
same,MIC,[11],< 0.1 µg/mL
same,MIC,[12]; MK1184,< 0.1 µg/mL
same,MIC,[19]; 2117,< 0.1 µg/mL
same,MIC,[20]; 1028,< 0.1 µg/mL
same,MIC,[13]; 6538,32 µg/mL
same,MIC,[14]; 69438,0.12 µg/mL
same,MIC,[16]; 15,4 µg/mL
same,ED50,"[17]; Escherichia coli, 25922, sc",< 0.1 mg/kg
same,ED50,[18],0.15 mg/kg
"Cc1cc(SCC2=C(C(=O)O)N3C(=O)[C@@H](NC(=O)/C(=N\OC(C)(C)C(=O)NO)c4csc(N)n4)[C@H]3SC2)n2nc(CNS(=O)(=O)c3ccc(O)c(O)c3)nc2n1 [Example 1, (6R,7R)-7-[(Z)-2-(2-amino-4-thiazolyl)-2-[[(1-hydroxycarbamoyl)-1-methylethoxy]imino]acetamido]-3-[[[2-[(3,4-dihydroxybenzenesulphonamido)methyl]-5-methyl-s-triazolo[1.5-a]pyrimidin-7-yl]thio]methyl]-8-oxo-5-thia-1-azabicyclo[4.2.0]oct-2-ene-2-carboxylic acid]",MIC,[1]; [21],1 µg/mL
same,MIC,[2]; [22],16 µg/mL
same,MIC,[3]; [23],4 µg/mL
same,MIC,[4],32 µg/mL
same,MIC,[5]; [24],0.25 µg/mL
same,MIC,[6]; [25],0.5 µg/mL
same,MIC,[7]; [26],0.12 µg/mL
same,MIC,[8]; [27],4 µg/mL
same,MIC,[9]; [28],0.25 µg/mL
same,MIC,[10]; [29],0.5 µg/mL
same,MIC,[11]; [30],0.5 µg/mL
same,MIC,[12]; [31],4 µg/mL
same,MIC,[19]; [36],0.12 µg/mL
same,MIC,[20]; [37],0.5 µg/mL
same,MIC,[13]; [32],16 µg/mL
same,MIC,[14]; [33],0.25 µg/mL
same,MIC,[16]; [34],4 µg/mL
